Reference: patent US8741614B2, “Crystal structure of isoglutaminyl cyclase” (Probiodrug AG, priority 2010, dated 2014)

Key:
[1] = target: human QC (Homo sapiens, UniProt Q16769); assay: inhibition of human QC in vitro; format: biochemical
[2] = target: mouse QC (Mus musculus, UniProt Q9CYK2); assay: inhibition of mouse QC in vitro; format: biochemical
[3] = solubility in water; format: physicochemical

Chain of mouse QC (Q9CYK2 36-362): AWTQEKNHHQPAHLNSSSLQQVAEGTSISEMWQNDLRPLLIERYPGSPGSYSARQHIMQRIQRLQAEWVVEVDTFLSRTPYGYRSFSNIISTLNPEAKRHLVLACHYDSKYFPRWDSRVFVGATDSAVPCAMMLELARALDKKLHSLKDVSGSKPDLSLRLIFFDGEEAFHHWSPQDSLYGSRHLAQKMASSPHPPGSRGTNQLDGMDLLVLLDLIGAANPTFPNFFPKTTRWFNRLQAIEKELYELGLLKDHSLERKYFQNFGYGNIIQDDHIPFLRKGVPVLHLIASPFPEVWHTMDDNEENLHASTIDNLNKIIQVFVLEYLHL
Chain of human QC (Q16769 29-361): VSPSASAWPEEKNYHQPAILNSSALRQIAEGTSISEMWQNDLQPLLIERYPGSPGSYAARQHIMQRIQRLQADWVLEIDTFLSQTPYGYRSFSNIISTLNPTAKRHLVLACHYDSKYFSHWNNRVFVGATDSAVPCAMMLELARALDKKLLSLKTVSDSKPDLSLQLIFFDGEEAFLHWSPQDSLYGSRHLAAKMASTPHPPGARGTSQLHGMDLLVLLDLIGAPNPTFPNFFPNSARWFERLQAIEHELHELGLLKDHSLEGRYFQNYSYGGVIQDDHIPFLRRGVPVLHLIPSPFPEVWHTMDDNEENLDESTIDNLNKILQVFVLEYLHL

## COc1ccc(NC(=S)NCCCn2ccnc2)cc1OC [Inhibitor A, 1-(3-(1H-Imidazol-1-yl)propyl)-3-(3,4-dimethoxyphenyl)thiourea]
[1]
  inhibition of human QC: inhibits
[2]
  inhibition of mouse QC: inhibits
[3]
  solubility in water: soluble in water
